Test results reported in ChEMBL document CHEMBL1135360, “The design and synthesis of a novel series of indole derived selective ET(A) antagonists” (Bioorg Med Chem Lett, 2002).

What was measured:
[1] = molecular target: T1, Endothelin-1 receptor (Homo sapiens, UniProt P25101); test: Displacement of [125I]-labeled ET-1 from human cloned endothelin A (ETA) receptor
T1 sequence (P25101 whole entry): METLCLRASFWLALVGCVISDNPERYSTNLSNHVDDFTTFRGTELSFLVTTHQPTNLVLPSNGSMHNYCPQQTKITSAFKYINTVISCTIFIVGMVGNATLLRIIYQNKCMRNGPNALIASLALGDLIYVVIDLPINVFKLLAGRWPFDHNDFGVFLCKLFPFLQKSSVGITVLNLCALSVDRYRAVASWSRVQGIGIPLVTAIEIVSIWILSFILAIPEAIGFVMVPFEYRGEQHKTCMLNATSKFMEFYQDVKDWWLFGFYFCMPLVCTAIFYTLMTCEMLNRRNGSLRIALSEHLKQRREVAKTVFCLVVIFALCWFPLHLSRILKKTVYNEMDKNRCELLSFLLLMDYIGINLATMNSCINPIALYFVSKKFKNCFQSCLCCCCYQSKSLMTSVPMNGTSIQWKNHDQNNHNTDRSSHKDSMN

[2] = molecular target: Endothelin receptor, ET-A/ET-B (Homo sapiens) (UniProt P24530+P25101); test: Ratio of binding affinity at Endothelin-A receptors compared to Endothelin-B receptors.; assay type: protein assay
[3] = molecular target: T2, Endothelin receptor type B (Homo sapiens, UniProt P24530); test: Binding affinity towards human cloned endothelin B receptor by [125I]ET1 displacement.
T2 sequence (P24530 whole entry): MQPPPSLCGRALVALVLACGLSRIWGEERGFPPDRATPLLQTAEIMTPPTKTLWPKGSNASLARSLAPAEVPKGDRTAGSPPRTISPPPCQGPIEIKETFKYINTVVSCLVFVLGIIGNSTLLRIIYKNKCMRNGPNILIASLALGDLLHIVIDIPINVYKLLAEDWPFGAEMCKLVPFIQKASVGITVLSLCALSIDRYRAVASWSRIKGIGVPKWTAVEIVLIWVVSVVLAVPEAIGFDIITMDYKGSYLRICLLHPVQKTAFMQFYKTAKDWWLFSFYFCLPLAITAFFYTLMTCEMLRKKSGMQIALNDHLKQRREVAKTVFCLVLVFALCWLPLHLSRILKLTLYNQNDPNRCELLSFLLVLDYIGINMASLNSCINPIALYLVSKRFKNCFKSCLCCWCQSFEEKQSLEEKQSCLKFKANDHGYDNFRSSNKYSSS

| SMILES | IC50 [1] [nM] | Ratio [2] | IC50 [3] [nM] |
| --- | --- | --- | --- |
| Cn1cc(C(C(=O)NS(=O)(=O)c2ccccc2)c2ccc3c(c2)OCO3)c2ccc(C(N)=O)cc21 (stereo unspecified) | 12 | 184 | 2570 |
| COc1ccc(S(=O)(=O)NC(=O)C(c2ccc3c(c2)OCO3)c2cn(C)c3cc(C(N)=O)ccc23)cc1 (stereo unspecified) | 2.8 | 34 | 94 |
| CC(C)c1ccc(S(=O)(=O)NC(=O)C(c2ccc3c(c2)OCO3)c2cn(C)c3cc(CN)ccc23)cc1 (stereo unspecified) | 38 | 5.4 | 204 |
| CC(C)c1ccc(S(=O)(=O)NC(=O)C(c2ccc3c(c2)OCO3)c2cn(C)c3cc(-c4nn[nH]n4)ccc23)cc1 (stereo unspecified) | 35 |  |  |
| CCn1cc(C(C(=O)NS(=O)(=O)c2ccc(C(C)C)cc2)c2ccc3c(c2)OCO3)c2ccc(C(=O)O)cc21 (stereo unspecified) | 32 | 68.8 | 2200 |
| CC(C)c1ccc(S(=O)(=O)NC(=O)C(c2ccc3c(c2)OCO3)c2cn(C)c3cc(CO)ccc23)cc1 (stereo unspecified) | 19 | 23.7 | 450 |
| CCn1cc(C(C(=O)NS(=O)(=O)c2ccc(C(C)C)cc2)c2ccc3c(c2)OCO3)c2ccc(C(=O)OC)cc21 (stereo unspecified) | 210 |  |  |
| COc1cc(OC)nc(O[C@H](C(=O)O)C(OC)(c2ccccc2)c2ccccc2)n1 [DARUSENTAN] | 0.8 |  | 16 |
| CCn1cc(C(C(=O)NS(=O)(=O)c2ccc(C(C)C)cc2)c2ccc3c(c2)OCO3)c2ccc(C(=O)NC)cc21 (stereo unspecified) | 30 | 7 | 210 |
| Cc1ccccc1S(=O)(=O)NC(=O)C(c1ccc2c(c1)OCO2)c1cn(C)c2cc(C(N)=O)ccc12 (stereo unspecified) | 5.2 | 203 | 1060 |
| Cn1cc(C(C(=O)NS(=O)(=O)c2ccc(Cl)cc2)c2ccc3c(c2)OCO3)c2ccc(C(N)=O)cc21 (stereo unspecified) | 7.5 | 146 | 1100 |
| Cn1cc(C(C(=O)NS(=O)(=O)c2ccccc2C(=O)O)c2ccc3c(c2)OCO3)c2ccc(C(N)=O)cc21 (stereo unspecified) | 3.1 | 272 | 846 |
| CC(C)c1ccc(S(=O)(=O)NC(=O)C(c2ccc3c(c2)OCO3)c2cn(C)c3cc(C#N)ccc23)cc1 (stereo unspecified) | 61 |  |  |
| CCn1cc(C(C(=O)NS(=O)(=O)c2ccc(C(C)C)cc2)c2ccc3c(c2)OCO3)c2ccc(C(N)=O)cc21 (stereo unspecified) | 3.5 | 19.7 | 68 |
| Cc1ccc(S(=O)(=O)NC(=O)C(c2ccc3c(c2)OCO3)c2cn(C)c3cc(C(N)=O)ccc23)cc1 (stereo unspecified) | 1.8 | 430 | 774 |
| COc1ccccc1S(=O)(=O)NC(=O)C(c1ccc2c(c1)OCO2)c1cn(C)c2cc(C(N)=O)ccc12 (stereo unspecified) | 5 | 62 | 310 |
| CC(C)c1ccc(S(=O)(=O)NC(=O)C(c2ccc3c(c2)OCO3)c2c[nH]c3cc(C(=O)O)ccc23)cc1 (stereo unspecified) | 31 |  |  |
| Cn1cc(C(C(=O)NS(=O)(=O)c2ccc(C(F)(F)F)cc2)c2ccc3c(c2)OCO3)c2ccc(C(N)=O)cc21 (stereo unspecified) | 6.5 | 35 | 228 |
| CCn1cc(C(C(=O)NS(=O)(=O)c2ccc(C(C)C)cc2)c2ccc3c(c2)OCO3)c2ccc(C(=O)N(C)C)cc21 (stereo unspecified) | 72 | 6.6 | 474 |
| COC(=O)c1ccc2c(C(C(=O)NS(=O)(=O)c3ccc(C(C)C)cc3)c3ccc4c(c3)OCO4)cn(C)c2c1 (stereo unspecified) | 100 |  |  |
| CCOc1cc(C)ccc1S(=O)(=O)NC(=O)C(c1ccc2c(c1)OCO2)c1cn(C)c2cc(C(N)=O)ccc12 (stereo unspecified) | 0.55 | 722 | 397 |
| COc1cc(C)ccc1S(=O)(=O)NC(=O)C(c1ccc2c(c1)OCO2)c1cn(C)c2cc(C(N)=O)ccc12 (stereo unspecified) | 1.1 | 275 | 302 |
| CC(C)c1ccc(S(=O)(=O)NC(=O)C(c2ccc3c(c2)OCO3)c2cn(C)c3cc(C(N)=O)ccc23)cc1 (stereo unspecified) | 2.3 | 14.8 | 34 |
| CC(C)c1ccc(S(=O)(=O)NC(=O)C(c2ccc3c(c2)OCO3)c2cn(C)c3cc(C(=O)O)ccc23)cc1 (stereo unspecified) | 22 | 68.2 | 1500 |
